According to article PMC10777855, “Pharmacological validation of dihydrofolate reductase as a drug target in Mycobacterium abscessus” (Antimicrobial Agents and Chemotherapy, 2023):
Where two headings read alike, the source gives them in different places.

Molecular target: T1, M. abscessus DHFR (recombinant) (Mycobacteroides abscessus, UniProt B1MD46)
T1 construct: gene MAB_3090c; E. coli codon-optimised gene in pET28a (NcoI/XhoI), N-terminal His6-tag, expressed in E. coli BL21(DE3), Ni-NTA purified; tag removal not mentioned
T1 sequence (B1MD46 1-163): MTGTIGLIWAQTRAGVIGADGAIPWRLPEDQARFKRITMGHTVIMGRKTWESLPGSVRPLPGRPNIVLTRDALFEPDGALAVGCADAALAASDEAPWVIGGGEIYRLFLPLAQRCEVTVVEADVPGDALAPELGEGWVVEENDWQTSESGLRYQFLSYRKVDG
Assay: NADPH absorbance decrease at […] nm (DHFR kit CS0340)
Format: biochemical

SMILES | IC50 (read-out: IC50 (μM) ^ b) [µM] | IC50 (read-out: IC50 ^ b) [µM]
COc1cc(Cc2cnc(N)nc2N)cc(OC)c1Br [Brodimoprim] | 1.7 | –
COc1cc(Cc2cnc(N)nc2N)c2c(c1OC)OC(C1CC1)C=C2 (stereo not shown) [Iclaprim] | 0.6 | –
CN(Cc1cnc2nc(N)nc(N)c2n1)c1ccc(C(=O)N[C@@H](CCC(=O)O)C(=O)O)cc1 [Methotrexate] | 0.016 | –
N#Cc1ccc(Cn2ccc3c4c(N)nc(N)nc4ccc32)cc1 [PQD-1] | 0.0025 | –
N#Cc1cccc(Cn2ccc3c4c(N)nc(N)nc4ccc32)c1 [PQD-2] | – | 0.0034
COC(=O)c1ccc(Cn2ccc3c4c(N)nc(N)nc4ccc32)cc1 [PQD-3] | – | 0.015
Cc1cccc(Cn2ccc3c4c(N)nc(N)nc4ccc32)n1 [PQD-4] | – | 0.015
N#Cc1ccccc1Cn1ccc2c3c(N)nc(N)nc3ccc21 [PQD-5] | – | 0.016
Cc1ccccc1Cn1ccc2c3c(N)nc(N)nc3ccc21 [PQD-6] | – | 0.015
Nc1nc(N)c2c(ccc3c2ccn3Cc2ccc3ccccc3c2)n1 [PQD-7] | – | 0.015
Nc1nc(N)c2c(ccc3c2ccn3Cc2ccc(F)cc2)n1 [PQD-8] | – | 0.02
Nc1nc(N)c2c(ccc3c2ccn3Cc2cccc(Cl)c2)n1 [PQD-9] | – | 0.03
CC(C)Nc1nc(N)c2c(ccc3c2ccn3Cc2ccc(C(C)C)cc2)n1 [PQD-10] | – | 4.1
C#CCC(Cc1cnc2nc(N)nc(N)c2n1)c1ccc(C(=O)N[C@@H](CCC(=O)O)C(=O)O)cc1 (stereo partly shown) [Pralatrexate] | 0.21 | –
CCc1nc(N)nc(N)c1-c1ccc(Cl)cc1 [Pyrimethamine] | 4.7 | –
COCCOc1c(OC)cc(Cc2cnc(N)nc2N)cc1OC [Tetroxoprim] | 20 | –
COc1cc(Cc2cnc(N)nc2N)cc(OC)c1OC [Trimethoprim] | 25 | –
COc1cc(NCc2ccc3nc(N)nc(N)c3c2C)cc(OC)c1OC [Trimetrexate] | 0.005 | –
CC1(C)N=C(N)N=C(N)N1OCCCOc1cc(Cl)c(Cl)cc1Cl [WR99210] | 0.016 | –
